Assays:
Type in all cases: in vitro ADME
[1] = Stability of COMPOUND A in human intestinal fluids, Procedure F (suspension, no separation of excess), first table; conditions: fasted HIF
Description: (§1) Fasted Intestinal Fluids: the fluids from 4 different subjects were collected with a naso-jejunal tube after fasting overnight and pooled.
(§2) Procedure F (COMPOUND A and COMPOUND B in suspension, the degradation immediately stopped without separation of excess compound): Stock K=COMPOUND B suspension (0.5 mg/mL)
(§3) Dilute 1 part of COMPOUND B suspension (stock J) with 3 parts of FeSSIF pH6.5 solution.
(§4) 500 μL of freshly thawed intestinal fluids (fasted and stimulated state) were added to 1.2 mg of COMPOUND A in a 1 mL glass vial. The suspended compound was stirred for 15 min at 37° C. to obtain wetting and a homogenous suspension. In parallel, 4 glass vials were prepared with 20 μL of a COMPOUND B suspension at different concentrations. These concentrations were obtained by mixing FeSSIF pH6.5 and COMPOUND B suspension (stock K) in different ratios, respectively 1:[…], 1:1, 0:1 to obtain 0, 1, 2 and 4% related to COMPOUND A. At time zero, 100 μL of COMPOUND A suspension preincubated at 37° C. were added to the 20 μL COMPOUND B suspension. The mixture was incubated at 37° C. with gentle stirring. After 15 min and 60 min, the reaction was stopped by mixing a 50 μL sample with 150 μL isopropanol and centrifuged at 5′000 rpm during 5 min. The clear supernatant was analyzed for the hydrolysis product and its oxidized form by HPLC.

[2] = Stability of COMPOUND A in human intestinal fluids, Procedure D (in solution), fasted; conditions: fasted intestinal fluid
Description: (§5) Procedure D (COMPOUND A and COMPOUND B in Solution):
as §1
(§6) 5 mg of thioisobutyric acid S-(2-{[1-(2-ethyl-butyl)-cyclohexanecarbonyl]-amino}-phenyl)ester (COMPOUND A) were dissolved in 50 μL ethanol and 950 μL mixed micelles solution containing Soybean lecithin/Sodium glycocholate (158/97 mg/mL) in water were added.
(§7) 3 mg of 1-(3-hexyl-4-oxo-oxetan-2-yl)tridecan-2-yl 2-formyl-amino-4-methyl-pentanoate (COMPOUND B) were dissolved in 1 mL of ethanol. 100 μL of this solution was diluted with 900 μL of FeSSIF concentrate (10×).
(§8) 100 μL of drug solution (stock D) were mixed with 100 μL of esterase inhibitor solution (stock E) and 800 μL of pro-FaSSIF were added.
(§9) 100 μL of premix (stock F) were mixed with 200 μL of drug solution (stock A).
(§10) 200 μL of premix (stock F) were mixed with 100 μL of drug solution (stock A). 315 μL of intestinal fluids (fasted and stimulated) were pre-heated at 37° C. for about 5 min. At time zero, 35 μL of premix solutions were added, i.e. either stock A, stock G, stock H or stock F, to obtain 50 μg/mL of COMPOUND A and final concentrations of COMPOUND B of 0, 1, 2 or 3 μg/mL. The samples were incubated at 37° C. while gently stirring. The reaction was stopped after 2 min or after 10 min by dilution of 1 part of the reaction mixture with 3 parts of isopropanol and the resulting mixture was centrifuged for 5 min at 5′000 rpm. The supernatant was analyzed by HPLC.

[3] = Stability of COMPOUND A in human intestinal fluids, Procedure D (in solution), stimulated; conditions: stimulated intestinal fluid
Description: as §5
(§11) Stimulated Intestinal Fluids: the fluids from 3 different subjects were collected after fasting overnight with a nasojejunal tube and pooled. For the stimulation, twenty minutes before the beginning of the collection, volunteers were provided with chewing-gums and were asked to chew over a 15 minutes period, maintaining the taste by replacing the sticks of gum approximately every 2 minutes.
as §6, §7, §8, §9, §10

Lipase from Hog Pancreas = experiment: Stability of COMPOUND A with Lipase, Procedure B' (as B, lower COMPOUND B concentrations); conditions: after 10 min incubation, 0.55 mg/mL (11 U/mL) Lipase
Description: 100 μL of drug solution (stock A) were mixed with 0, 12, 25 or 50 μL esterase inhibitor solution (stock B) and 100, 88, 75 or 50 μL of FeSSIF concentrate (Lecithin37.5 mM and Sodium taurocholate 150 mM) were added to make up 200 μL of a solution with COMPOUND B concentrations of 0, 12, 25 or 50 μg/mL. At time zero, 800 μL of Lipase in phosphate buffered saline solution (from stock C to obtain final enzyme concentrations of 0.55 mg/mL) were added. The reaction mixture was incubated at 37° C. and stopped after 10 minutes by diluting one part of the reaction mixture with 3 parts Isopropanol.
Procedure B′ (Premix of COMPOUND B and COMPOUND A, Followed by Addition of Lipase):
The tests were repeated as described under procedure B but with final COMPOUND B concentrations of 0, 3, 6, 12 μg/ml.

[4] = Stability of COMPOUND A in human intestinal fluids, Procedure F (suspension, no separation of excess), second table; conditions: fasted HIF
Description: as §11, §2, §3, §4

[5] = COMPOUND B 0 μg/mL (0%), T = 15 min
[6] = COMPOUND B 0 μg/mL (0%), T = 60 min
[7] = COMPOUND B 20 μg/mL (1%), T = 15 min
[8] = COMPOUND B 20 μg/mL (1%), T = 60 min
[9] = COMPOUND B 40 μg/mL (2%), T = 15 min
[10] = COMPOUND B 40 μg/mL (2%), T = 60 min
[11] = COMPOUND B 80 μg/mL (4%), T = 15 min
[12] = COMPOUND B 80 μg/mL (4%), T = 60 min
[13] = COMPOUND B 0 μg/mL, 2 min, theoretical 50 μg/mL

With `CCC(CC)CC1(C(=O)Nc2ccccc2SC(=O)C(C)C)CCCCC1` [COMPOUND A, thioisobutyric acid S-(2-{[1-(2-ethyl-butyl)-cyclohexanecarbonyl]-amino}-phenyl)ester] the “Concentration of COMPOUND A” value [1, 5] was 1111.92 µg/mL, the “Concentration of COMPOUND A” value [1, 6] was 182.50 µg/mL and the “Concentration of COMPOUND A” value [1, 7] was 1299.01 µg/mL. For the same compound, the “Concentration of COMPOUND A” value [1, 8] was 718.26 µg/mL, the “Concentration of COMPOUND A” value [1, 9] was 1381.23 µg/mL and the “Concentration of COMPOUND A” value [1, 10] was 598.81 µg/mL. The “Concentration of COMPOUND A” value [1, 11] was 1728.95 µg/mL, the “Concentration of COMPOUND A” value [1, 12] was 826.93 µg/mL and the “Concentration of COMPOUND A” value [2, 13] was 0.48 µg/mL. The “Concentration of COMPOUND A” value ([2]; COMPOUND B 0 μg/mL, 10 min) was 0.48 µg/mL, the “Concentration of COMPOUND A” value ([2]; COMPOUND B 1 μg/mL, 2 min) was 18.00 µg/mL and the “Concentration of COMPOUND A” value ([2]; COMPOUND B 1 μg/mL, 10 min) was 1.58 µg/mL. The “Concentration of COMPOUND A” value ([2]; COMPOUND B 2 μg/mL, 2 min) was 36.91 µg/mL, the “Concentration of COMPOUND A” value ([2]; COMPOUND B 2 μg/mL, 10 min) was 28.59 µg/mL and the “Concentration of COMPOUND A” value ([2]; COMPOUND B 3 μg/mL, 2 min) was 43.72 µg/mL. For the same compound, the “Concentration of COMPOUND A” value ([2]; COMPOUND B 3 μg/mL, 10 min) was 37.24 µg/mL, the “Concentration of COMPOUND A” value [3, 13] was 0.48 µg/mL and the “Concentration of COMPOUND A” value ([3]; COMPOUND B 0 μg/mL, 10 min) was 0.48 µg/mL. For the same compound, the “Concentration of COMPOUND A” value ([3]; COMPOUND B 1 μg/mL, 2 min) was 26.06 µg/mL, the “Concentration of COMPOUND A” value ([3]; COMPOUND B 1 μg/mL, 10 min) was 2.76 µg/mL and the “Concentration of COMPOUND A” value ([3]; COMPOUND B 2 μg/mL, 2 min) was 38.92 µg/mL. The “Concentration of COMPOUND A” value ([3]; COMPOUND B 2 μg/mL, 10 min) was 24.93 µg/mL, the “Concentration of COMPOUND A” value ([3]; COMPOUND B 3 μg/mL, 2 min) was 46.91 µg/mL and the “Concentration of COMPOUND A” value ([3]; COMPOUND B 3 μg/mL, 10 min) was 40.48 µg/mL. For the same compound, the “Concentration of COMPOUND A” value (Lipase from Hog Pancreas; COMPOUND B 0 μg/ml) was 14.2 µg/mL, the “Concentration of COMPOUND A” value (Lipase from Hog Pancreas; COMPOUND B 3 μg/ml) was 45.9 µg/mL and the “Concentration of COMPOUND A” value (Lipase from Hog Pancreas; COMPOUND B 6 μg/ml) was 46.5 µg/mL. For the same compound, the “Concentration of COMPOUND A” value (Lipase from Hog Pancreas; COMPOUND B 12 μg/ml) was 45.7 µg/mL, the “Concentration of COMPOUND A” value [4, 5] was 1569.58 µg/mL and the “Concentration of COMPOUND A” value [4, 6] was 400.63 µg/mL. For the same compound, the “Concentration of COMPOUND A” value [4, 7] was 2034.38 µg/mL, the “Concentration of COMPOUND A” value [4, 8] was 1503.21 µg/mL and the “Concentration of COMPOUND A” value [4, 9] was 2163.01 µg/mL. The “Concentration of COMPOUND A” value [4, 10] was 1515.41 µg/mL, the “Concentration of COMPOUND A” value [4, 11] was 1945.50 µg/mL and the “Concentration of COMPOUND A” value [4, 12] was 1449.03 µg/mL.

Reference: US20100144853A1, “NOVEL COMBINED ADMINISTRATION” (priority 2008, published 2010)
